Laboratory results: paper PMC12656268, “Venom Peptides Across Asian and American Tarantulas Utilize Dual Pharmacology to Target Activation and Fast Inactivation of Voltage-Gated Sodium Channels” (Toxins, 2025)
Positions of bridges follow the written chain, without caps; N, C: chain ends. Residues, ends and D or L forms follow the SMILES beside them.

How the values were obtained:
Format in all cases: cell-based
hNaV1.4 = hNaV1.4 (Homo sapiens, UniProt P35499); assay: hNaV1.4 peak current inhibition, automated whole-cell patch clamp (QPatch 16X); details: for IC50: HEK293 + β1, holding −80 mV, 20 ms step to 0 mV from −120 mV 200 ms prepulse, 5 min incubation, mean ± SEM, 3 to 9 independent experiments, read-out: IC50, inhibition of peak current, NaV1.4
Experimental: (§1) Unless otherwise specified, all cell culture reagents were obtained from Life Technologies (Carlsbad, CA, USA). The human neuroblastoma cell line SH-SY5Y (ATCC CRL-2266; Manassas, VA, USA) was maintained in RPMI medium supplemented with 15% fetal bovine serum (FBS) and 2 mM L-glutamine. HEK293 cells stably expressing human NaV channel isoforms together with the β1 auxiliary subunit (SB Drug Discovery, Glasgow, UK) were propagated in Minimal Essential Medium (MEM; Sigma-Aldrich, St. Louis, MO, USA) containing 10% FBS, 100 U/mL penicillin, 100 µg/mL streptomycin, 2 mM L-glutamine, and selective antibiotics (blasticidin, geneticin, and zeocin) at concentrations recommended by the supplier. […]
(§2) Sodium channel currents were recorded from HEK293 cells expressing human NaV isoforms together with the β1 auxiliary subunit (SB Drug Discovery, Glasgow, UK) using the QPatch 16X automated whole-cell patch-clamp platform (Sophion Bioscience A/S, Ballerup, Denmark). […] For determining the potency of Oa1a peptides to inhibit peak current, the maximum peak current within the 20 ms at 0 mV was measured. For determining the potency of Oa1a-NH2 to slow fast inactivation, peak current values were measured at 20 ms of the 0 mV depolarization step. […]
(§3) For calcium influx experiments, bioactivity comparisons between venom fractions and controls were based on the difference between the maximal and minimal fluorescence intensity values obtained from single-replicate assays. […] Reversibility and dissociation kinetics were analyzed by fitting data with a single-phase exponential decay model, while voltage-dependence of steady-state activation and inactivation parameters were derived from Boltzmann sigmoid fits of normalized conductance (G/Gmax) or current (I/Imax) values to determine the half-activation or half-inactivation voltages (V50). Data are expressed as mean ± SEM, where n represents the number of individual cells analyzed.

hNaV1.5 = hNaV1.5 (Homo sapiens, UniProt Q14524); assay: hNaV1.5 peak current inhibition, automated whole-cell patch clamp (QPatch 16X); details: for IC50: HEK293 + β1, holding −80 mV, 20 ms step to 0 mV from −120 mV 200 ms prepulse, 5 min incubation, mean ± SEM, 3 to 9 independent experiments, read-out: IC50, inhibition of peak current, NaV1.5
Chain of hNaV1.5 (Q14524 whole entry): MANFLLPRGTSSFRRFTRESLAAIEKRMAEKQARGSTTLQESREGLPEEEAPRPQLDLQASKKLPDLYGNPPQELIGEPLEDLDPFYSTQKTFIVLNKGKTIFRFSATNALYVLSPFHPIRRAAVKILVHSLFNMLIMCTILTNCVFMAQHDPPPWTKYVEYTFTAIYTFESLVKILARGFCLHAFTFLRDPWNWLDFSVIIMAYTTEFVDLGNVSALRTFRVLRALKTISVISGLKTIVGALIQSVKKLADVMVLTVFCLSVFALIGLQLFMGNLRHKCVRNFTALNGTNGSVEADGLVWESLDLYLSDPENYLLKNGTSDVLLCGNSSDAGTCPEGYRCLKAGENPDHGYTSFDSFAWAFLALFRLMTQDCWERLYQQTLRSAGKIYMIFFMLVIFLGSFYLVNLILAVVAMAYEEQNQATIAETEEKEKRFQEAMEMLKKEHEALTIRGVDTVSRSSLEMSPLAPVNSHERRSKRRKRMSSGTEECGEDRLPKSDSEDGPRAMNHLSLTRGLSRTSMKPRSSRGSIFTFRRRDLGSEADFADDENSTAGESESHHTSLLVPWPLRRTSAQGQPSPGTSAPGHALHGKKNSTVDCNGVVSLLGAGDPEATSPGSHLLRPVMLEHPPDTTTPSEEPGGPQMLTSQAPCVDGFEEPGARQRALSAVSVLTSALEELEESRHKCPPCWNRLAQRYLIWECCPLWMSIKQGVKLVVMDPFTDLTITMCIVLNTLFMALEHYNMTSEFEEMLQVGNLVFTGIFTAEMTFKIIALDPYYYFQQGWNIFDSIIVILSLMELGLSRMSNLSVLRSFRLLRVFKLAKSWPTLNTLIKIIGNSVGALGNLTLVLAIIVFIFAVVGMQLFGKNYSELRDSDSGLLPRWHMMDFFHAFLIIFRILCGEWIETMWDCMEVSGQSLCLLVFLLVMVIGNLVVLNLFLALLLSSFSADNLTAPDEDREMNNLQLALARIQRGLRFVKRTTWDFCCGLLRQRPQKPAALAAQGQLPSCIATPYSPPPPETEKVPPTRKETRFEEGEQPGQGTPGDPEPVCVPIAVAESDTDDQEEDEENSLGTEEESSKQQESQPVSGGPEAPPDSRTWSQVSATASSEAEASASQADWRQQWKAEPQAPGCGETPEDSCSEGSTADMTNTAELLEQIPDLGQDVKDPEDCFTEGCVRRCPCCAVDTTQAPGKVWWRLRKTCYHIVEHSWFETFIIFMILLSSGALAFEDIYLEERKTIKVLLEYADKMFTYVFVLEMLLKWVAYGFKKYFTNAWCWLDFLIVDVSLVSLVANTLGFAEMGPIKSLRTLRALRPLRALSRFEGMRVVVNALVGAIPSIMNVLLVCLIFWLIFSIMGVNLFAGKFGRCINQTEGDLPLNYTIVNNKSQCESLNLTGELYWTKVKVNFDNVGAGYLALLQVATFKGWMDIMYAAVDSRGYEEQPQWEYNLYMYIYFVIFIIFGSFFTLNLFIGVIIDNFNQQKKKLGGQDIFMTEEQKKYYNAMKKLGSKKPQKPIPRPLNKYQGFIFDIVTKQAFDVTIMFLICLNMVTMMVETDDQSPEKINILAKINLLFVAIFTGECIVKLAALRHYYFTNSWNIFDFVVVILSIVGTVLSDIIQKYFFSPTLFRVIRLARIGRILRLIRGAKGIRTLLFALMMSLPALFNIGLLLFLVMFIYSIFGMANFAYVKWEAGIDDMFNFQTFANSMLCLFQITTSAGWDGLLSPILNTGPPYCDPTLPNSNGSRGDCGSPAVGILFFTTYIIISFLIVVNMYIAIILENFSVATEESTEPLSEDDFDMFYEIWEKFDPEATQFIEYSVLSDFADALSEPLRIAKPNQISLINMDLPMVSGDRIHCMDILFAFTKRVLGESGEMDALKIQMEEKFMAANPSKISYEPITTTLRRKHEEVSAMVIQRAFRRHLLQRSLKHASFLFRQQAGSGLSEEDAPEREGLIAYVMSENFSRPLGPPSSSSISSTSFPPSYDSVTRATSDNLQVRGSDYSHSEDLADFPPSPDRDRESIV
Experimental: as §1, §2, §3

hNaV1.6 = hNaV1.6 (Homo sapiens, UniProt Q9UQD0); assay: hNaV1.6 peak current inhibition, automated whole-cell patch clamp (QPatch 16X); details: for IC50: HEK293 + β1, holding −80 mV, 20 ms step to 0 mV from −120 mV 200 ms prepulse, 5 min incubation, mean ± SEM, 3 to 9 independent experiments, read-out: IC50, inhibition of peak current, NaV1.6
Experimental: as §1, §2, §3

hNaV1.2 = hNaV1.2 (Homo sapiens, UniProt Q99250); assay: hNaV1.2 peak current inhibition, automated whole-cell patch clamp (QPatch 16X); details: for IC50: HEK293 + β1, holding −80 mV, 20 ms step to 0 mV from −120 mV 200 ms prepulse, 5 min incubation, mean ± SEM, 3 to 9 independent experiments, read-out: IC50, inhibition of peak current, NaV1.2
Experimental: as §1, §2, §3

NaV1.1 = NaV1.1 (Homo sapiens, UniProt P35498); assay: Off-rate / reversibility on NaV1.1, patch clamp with saline washes; details: for 95% CI of off-rate (dissociation time), NaV1.1: peptide at 10× IC50 for 10 min, then saline washes, 3 to 5 independent repeats; for Reversibility on NaV1.1 by washing: peptide at 10× IC50 for NaV1.1, then washing
Experimental: For off-rate measurements, cells at a holding potential −80 mV were incubated with peptide for 10 min at a concentration equivalent to 10 times their IC50 for the NaV subtype being analyzed, followed by saline washes. Na^+ currents were assessed every 10 s utilizing a holding potential −80 mV and currents elicited by 20 ms voltage step to 0 mV from a −120 mV conditioning pulse applied for 200 ms. Ion currents (INa) plotted as I/Imax, where I = current value and Imax = highest current value within the experiment.
(§4) For calcium influx experiments, bioactivity comparisons between venom fractions and controls were based on the difference between the maximal and minimal fluorescence intensity values obtained from single-replicate assays. Electrophysiological data analysis was conducted using GraphPad Prism (version 8; GraphPad Software, San Diego, CA, USA). Nonlinear regression was applied to fit the concentration–response relationships using a variable Hill slope: log(inhibitor) versus normalized response for determining IC50 values, and log(agonist) versus normalized response for EC50 calculations. Reversibility and dissociation kinetics were analyzed by fitting data with a single-phase exponential decay model, while voltage-dependence of steady-state activation and inactivation parameters were derived from Boltzmann sigmoid fits of normalized conductance (G/Gmax) or current (I/Imax) values to determine the half-activation or half-inactivation voltages (V50). Data are expressed as mean ± SEM, where n represents the number of individual cells analyzed.

hNaV1.3 = hNaV1.3 (Homo sapiens, UniProt Q9NY46); assay: hNaV1.3 peak current inhibition, automated whole-cell patch clamp (QPatch 16X); details: for IC50: HEK293 + β1, holding −80 mV, 20 ms step to 0 mV from −120 mV 200 ms prepulse, 5 min incubation, mean ± SEM, 3 to 9 independent experiments, read-out: IC50, inhibition of peak current, NaV1.3
Chain of hNaV1.3 (Q9NY46 whole entry): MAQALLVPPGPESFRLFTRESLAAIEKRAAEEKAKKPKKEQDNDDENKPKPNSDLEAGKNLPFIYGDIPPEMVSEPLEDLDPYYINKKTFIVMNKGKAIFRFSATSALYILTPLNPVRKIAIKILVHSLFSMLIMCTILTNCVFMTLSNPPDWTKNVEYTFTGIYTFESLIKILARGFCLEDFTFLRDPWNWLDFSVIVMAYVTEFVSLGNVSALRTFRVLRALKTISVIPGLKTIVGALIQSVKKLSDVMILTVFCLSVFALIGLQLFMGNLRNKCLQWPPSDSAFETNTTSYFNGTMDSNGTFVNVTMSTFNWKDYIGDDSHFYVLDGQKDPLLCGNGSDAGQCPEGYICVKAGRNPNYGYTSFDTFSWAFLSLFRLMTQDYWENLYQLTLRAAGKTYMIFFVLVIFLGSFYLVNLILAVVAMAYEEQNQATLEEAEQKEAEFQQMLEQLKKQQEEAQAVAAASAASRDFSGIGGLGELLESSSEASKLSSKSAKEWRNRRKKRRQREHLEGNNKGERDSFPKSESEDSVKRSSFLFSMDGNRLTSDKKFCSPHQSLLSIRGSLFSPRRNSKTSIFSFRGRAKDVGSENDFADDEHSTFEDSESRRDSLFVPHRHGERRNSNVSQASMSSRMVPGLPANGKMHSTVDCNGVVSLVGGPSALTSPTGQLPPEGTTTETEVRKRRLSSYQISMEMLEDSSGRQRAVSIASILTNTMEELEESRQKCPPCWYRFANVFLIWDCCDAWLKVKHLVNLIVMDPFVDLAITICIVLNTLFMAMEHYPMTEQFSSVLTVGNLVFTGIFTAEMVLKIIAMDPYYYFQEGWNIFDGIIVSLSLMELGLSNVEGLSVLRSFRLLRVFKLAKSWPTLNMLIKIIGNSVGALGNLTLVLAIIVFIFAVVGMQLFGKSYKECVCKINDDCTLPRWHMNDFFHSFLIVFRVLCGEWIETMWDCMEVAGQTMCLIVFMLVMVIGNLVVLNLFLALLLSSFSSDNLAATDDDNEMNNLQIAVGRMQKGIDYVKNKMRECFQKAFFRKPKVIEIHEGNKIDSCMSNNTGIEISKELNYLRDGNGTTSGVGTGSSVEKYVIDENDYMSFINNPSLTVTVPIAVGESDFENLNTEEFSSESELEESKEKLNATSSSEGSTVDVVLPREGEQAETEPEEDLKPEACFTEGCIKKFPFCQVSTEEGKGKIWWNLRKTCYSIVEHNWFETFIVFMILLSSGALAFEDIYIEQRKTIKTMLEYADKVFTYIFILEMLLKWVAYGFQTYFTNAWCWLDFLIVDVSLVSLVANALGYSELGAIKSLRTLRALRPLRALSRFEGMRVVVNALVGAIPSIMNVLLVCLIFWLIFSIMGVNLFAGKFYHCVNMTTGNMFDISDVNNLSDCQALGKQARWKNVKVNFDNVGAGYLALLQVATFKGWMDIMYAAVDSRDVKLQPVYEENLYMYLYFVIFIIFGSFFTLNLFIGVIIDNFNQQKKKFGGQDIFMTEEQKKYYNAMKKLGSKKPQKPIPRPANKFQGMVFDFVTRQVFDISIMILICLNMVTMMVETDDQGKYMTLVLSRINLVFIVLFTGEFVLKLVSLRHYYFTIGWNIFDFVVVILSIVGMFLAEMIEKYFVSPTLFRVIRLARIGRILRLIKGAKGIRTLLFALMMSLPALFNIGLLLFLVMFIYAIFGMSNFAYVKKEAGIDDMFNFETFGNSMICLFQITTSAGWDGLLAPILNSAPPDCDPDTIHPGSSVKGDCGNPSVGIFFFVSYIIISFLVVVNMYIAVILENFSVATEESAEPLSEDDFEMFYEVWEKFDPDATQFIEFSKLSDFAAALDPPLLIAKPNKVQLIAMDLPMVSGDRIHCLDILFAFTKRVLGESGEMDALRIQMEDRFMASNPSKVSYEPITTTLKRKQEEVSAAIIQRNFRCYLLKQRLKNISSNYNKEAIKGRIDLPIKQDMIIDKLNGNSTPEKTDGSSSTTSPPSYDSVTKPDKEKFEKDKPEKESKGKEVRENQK
Chain of hNaV1.3 (Q07699 19-218, further chain): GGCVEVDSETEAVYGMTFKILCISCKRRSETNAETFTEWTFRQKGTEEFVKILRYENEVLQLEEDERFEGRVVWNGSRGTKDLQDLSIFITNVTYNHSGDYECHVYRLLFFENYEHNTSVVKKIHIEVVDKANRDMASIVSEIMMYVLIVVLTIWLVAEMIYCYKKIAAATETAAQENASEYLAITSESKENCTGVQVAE
Experimental: as §1, §2, §3

NaV1.3 = NaV1.3 (Homo sapiens, UniProt Q9NY46); assay: Slowing of fast inactivation of NaV1.3; details: for Slowing of fast inactivation of NaV1.3 (in words): closed-state voltage protocol, current traces, concentrations up to those of IC50 curves
Chain of NaV1.3 (Q9NY46 whole entry, canonical isoform): as the sequence (Q9NY46 whole entry) above
Chain of NaV1.3 (Q07699 19-218, further chain): as the sequence (Q07699 19-218, further chain) above
Experimental: Sodium channel currents were recorded from HEK293 cells expressing human NaV isoforms together with the β1 auxiliary subunit (SB Drug Discovery, Glasgow, UK) using the QPatch 16X automated whole-cell patch-clamp platform (Sophion Bioscience A/S, Ballerup, Denmark). The external recording solution contained (in mM) the following: 140 NaCl, 3 KCl, 1 CaCl2, 1 MgCl2, 0.1 CdCl2, 20 tetraethylammonium chloride (TEA-Cl), and 5 HEPES; pH was adjusted to 7.3 and osmolarity to 320 mOsm. The internal (pipette) solution consisted of (in mM) the following: 140 CsF, 10 NaCl, 10 HEPES, and 1/5 EGTA/CsOH, also adjusted to pH 7.3 and 320 mOsm. Cells were voltage-clamped at a holding potential of −80 mV, and inward Na^+ currents were evoked by 20 ms depolarizing pulses to 0 mV following a 200 ms hyperpolarizing prepulse to −120 mV. To obtain concentration–response curves, cells at holding potential were incubated for 5 min with increasing concentrations of Oa1a peptides. For determining the potency of Oa1a peptides to inhibit peak current, the maximum peak current within the 20 ms at 0 mV was measured. For determining the potency of Oa1a-NH2 to slow fast inactivation, peak current values were measured at 20 ms of the 0 mV depolarization step. Ion currents (INa) were plotted as I/Imax, where I = current value and Imax = highest current value within the experiment.
as §4

hNaV1.1 = hNaV1.1 (Homo sapiens, UniProt P35498); assay: hNaV1.1 peak current inhibition, automated whole-cell patch clamp (QPatch 16X); details: for IC50: HEK293 + β1, holding −80 mV, 20 ms step to 0 mV from −120 mV 200 ms prepulse, 5 min incubation, mean ± SEM, 3 to 9 independent experiments, read-out: IC50, inhibition of peak current, NaV1.1
Experimental: as §1, §2, §3

Compound `CC(C)C[C@@H]1NC(=O)[C@H](Cc2ccccc2)NC(=O)[C@H](Cc2ccc(O)cc2)NC(=O)[C@H](CCCNC(=N)N)NC(=O)[C@@H](NC(=O)[C@@H](N)CCC(=O)O)CSSC[C@@H]2NC(=O)[C@@H]3CSSC[C@@H](C(=O)N[C@H](C(=O)N[C@@H](Cc4c[nH]c5ccccc45)C(=O)N[C@@H](CC(=O)O)C(=O)N[C@@H](Cc4c[nH]c5ccccc45)C(=O)N[C@H](C(=O)N[C@@H](Cc4ccccc4)C(N)=O)[C@@H](C)O)C(C)C)NC(=O)[C@H](Cc4c[nH]c5ccccc45)NC(=O)[C@H](CCC(N)=O)NC(=O)[C@H](Cc4c[nH]cn4)NC(=O)[C@H](CCCCN)NC(=O)[C@H](CC(N)=O)NC(=O)[C@H](Cc4c[nH]cn4)NC(=O)[C@H](CSSC[C@H](NC(=O)CNC(=O)CNC1=O)C(=O)N[C@@H](CO)C(=O)N[C@@H](CCC(N)=O)C(=O)NCC(=O)N[C@@H](CCC(=O)O)C(=O)N[C@@H](CCCCN)C(=O)N3)NC(=O)[C@H](C(C)C)NC(=O)[C@H](CC(C)C)NC(=O)[C@H](Cc1c[nH]cn1)NC(=O)[C@H](CCC(=O)O)NC2=O` [sOa1a-NH2] (H-ECRYFLGGCSQGEKCCEHLVCHNKHQWCVWDWTF-NH2; disulfide 2-16, 9-21, 15-28; N-terminus assumed) has an IC50 (hNaV1.4) of 2.29 ± 0.077 µM, an IC50 (hNaV1.5) of 0.192 ± 0.004 µM and an IC50 (hNaV1.6) of 0.223 ± 0.018 µM. For the same compound, the IC50 (hNaV1.2) was 0.154 ± 0.007 µM, the “95% CI of off-rate (dissociation time), NaV1.1” value (NaV1.1) was “Off-rate 4.6 min (95% CI = 4.27 to 4.97 min)” and the “Reversibility on NaV1.1 by washing” value (NaV1.1) was “completely reversed by washing”. For the same compound, the “Increase in off-rate through C-terminal amidation, NaV1.1” value (NaV1.1; sOa1a-NH2 vs sOa1a-OH) was 1 min, the IC50 (hNaV1.3) was 0.162 ± 0.008 µM and the “Slowing of fast inactivation of NaV1.3 (in words)” value (NaV1.3) was “strongly slowing the fast inactivation of NaV1.3”. The EC50 (NaV1.3; current measured at 20 ms of the 0 mV depolarization step, 5 min incubation, mean ± SEM, 3 to 5 repeats) was 0.0229 ± 0.0018 µM and the IC50 (hNaV1.1) was 0.017 ± 0.001 µM.
In the case of `CC(C)C[C@@H]1NC(=O)[C@H](Cc2ccccc2)NC(=O)[C@H](Cc2ccc(O)cc2)NC(=O)[C@H](CCCNC(=N)N)NC(=O)[C@@H](NC(=O)[C@@H](N)CCC(=O)O)CSSC[C@@H]2NC(=O)[C@@H]3CSSC[C@@H](C(=O)N[C@H](C(=O)N[C@@H](Cc4c[nH]c5ccccc45)C(=O)N[C@@H](CC(=O)O)C(=O)N[C@@H](Cc4c[nH]c5ccccc45)C(=O)N[C@H](C(=O)N[C@@H](Cc4ccccc4)C(=O)O)[C@@H](C)O)C(C)C)NC(=O)[C@H](Cc4c[nH]c5ccccc45)NC(=O)[C@H](CCC(N)=O)NC(=O)[C@H](Cc4c[nH]cn4)NC(=O)[C@H](CCCCN)NC(=O)[C@H](CC(N)=O)NC(=O)[C@H](Cc4c[nH]cn4)NC(=O)[C@H](CSSC[C@H](NC(=O)CNC(=O)CNC1=O)C(=O)N[C@@H](CO)C(=O)N[C@@H](CCC(N)=O)C(=O)NCC(=O)N[C@@H](CCC(=O)O)C(=O)N[C@@H](CCCCN)C(=O)N3)NC(=O)[C@H](C(C)C)NC(=O)[C@H](CC(C)C)NC(=O)[C@H](Cc1c[nH]cn1)NC(=O)[C@H](CCC(=O)O)NC2=O` [sOa1a-OH] (H-ECRYFLGGCSQGEKCCEHLVCHNKHQWCVWDWTF-OH; disulfide 2-16, 9-21, 15-28; N-terminus assumed), the IC50 (hNaV1.4) is reported as > 3 µM, the “Activity on NaV1.4 (in words)” value (hNaV1.4; tested at up to 3 μM) is reported as “no activity” and the IC50 (hNaV1.5) is reported as 1.27 ± 0.022 µM. For the same compound, the “Ratio OH/NH2 (IC50 sOa1a-OH / IC50 sOa1a-NH2), NaV1.5” value (hNaV1.5; ratio of IC50 values) was 6.6, the IC50 (hNaV1.6) was 0.568 ± 0.038 µM and the “Ratio OH/NH2 (IC50 sOa1a-OH / IC50 sOa1a-NH2), NaV1.6” value (hNaV1.6; ratio of IC50 values) was 2.6. The IC50 (hNaV1.2) was > 3 µM, the “Activity on NaV1.2 (in words)” value (hNaV1.2; tested at up to 3 μM) was “no activity” and the “95% CI of off-rate (dissociation time), NaV1.1” value (NaV1.1) was “Off-rate 3.56 min (95% CI = 3.35 to 3.80 min)”. The “Reversibility on NaV1.1 by washing” value (NaV1.1) was “completely reversed by washing”, the IC50 (hNaV1.3) was > 3 µM and the “Activity on NaV1.3 (in words)” value (hNaV1.3; tested at up to 3 μM) was “no activity”. The “Slowing of fast inactivation of NaV1.3 (in words)” value (NaV1.3) was “this dual modulatory activity was not observed”, the IC50 (hNaV1.1) was 0.274 ± 0.018 µM and the “Ratio OH/NH2 (IC50 sOa1a-OH / IC50 sOa1a-NH2), NaV1.1” value (hNaV1.1; ratio of IC50 values) was 16.
